The results in this text go back to paper PMC5224880, “Discovery and Molecular Basis of a Diverse Set of Polycomb Repressive Complex 2 Inhibitors Recognition by EED” (PLoS ONE, 2017).

In general, IC50 refers to the concentration needed to halve the response being measured.

Holding throughout (type): biochemical
One test concerns the target SETD2 (Homo sapiens, UniProt Q9BYW2). Description: HMT panel selectivity: SETD2. The method, then: (§1) Note: for EZH2, EZH2/EED/SUZ12/RBAP48/AEBP2 was used in the assay; for EZH1, EZH1/EED/SUZ12/RBAP48/AEBP2 was used in the assay; for MLL, MLL/WDR5/RBBP5/ASH2L/ was use in the assay. a, H3K27me0 peptide was used as substrate for both EZH2 and EZH1 activity; b, H3K27me1 peptide was used as substrate for both EZH2 and EZH1 activity. All HMT reactions were performed as described previously. ref: Proc Natl Acad Sci U S A. 2012 Dec 26;109(52):21360-5.

Another test addresses ESET (Homo sapiens, UniProt Q15047). In words: HMT panel selectivity: ESET. The method, then: as §1
A further test addresses T1, G9a (Homo sapiens, UniProt Q96KQ7).
T1 sequence (Q96KQ7 1-1210): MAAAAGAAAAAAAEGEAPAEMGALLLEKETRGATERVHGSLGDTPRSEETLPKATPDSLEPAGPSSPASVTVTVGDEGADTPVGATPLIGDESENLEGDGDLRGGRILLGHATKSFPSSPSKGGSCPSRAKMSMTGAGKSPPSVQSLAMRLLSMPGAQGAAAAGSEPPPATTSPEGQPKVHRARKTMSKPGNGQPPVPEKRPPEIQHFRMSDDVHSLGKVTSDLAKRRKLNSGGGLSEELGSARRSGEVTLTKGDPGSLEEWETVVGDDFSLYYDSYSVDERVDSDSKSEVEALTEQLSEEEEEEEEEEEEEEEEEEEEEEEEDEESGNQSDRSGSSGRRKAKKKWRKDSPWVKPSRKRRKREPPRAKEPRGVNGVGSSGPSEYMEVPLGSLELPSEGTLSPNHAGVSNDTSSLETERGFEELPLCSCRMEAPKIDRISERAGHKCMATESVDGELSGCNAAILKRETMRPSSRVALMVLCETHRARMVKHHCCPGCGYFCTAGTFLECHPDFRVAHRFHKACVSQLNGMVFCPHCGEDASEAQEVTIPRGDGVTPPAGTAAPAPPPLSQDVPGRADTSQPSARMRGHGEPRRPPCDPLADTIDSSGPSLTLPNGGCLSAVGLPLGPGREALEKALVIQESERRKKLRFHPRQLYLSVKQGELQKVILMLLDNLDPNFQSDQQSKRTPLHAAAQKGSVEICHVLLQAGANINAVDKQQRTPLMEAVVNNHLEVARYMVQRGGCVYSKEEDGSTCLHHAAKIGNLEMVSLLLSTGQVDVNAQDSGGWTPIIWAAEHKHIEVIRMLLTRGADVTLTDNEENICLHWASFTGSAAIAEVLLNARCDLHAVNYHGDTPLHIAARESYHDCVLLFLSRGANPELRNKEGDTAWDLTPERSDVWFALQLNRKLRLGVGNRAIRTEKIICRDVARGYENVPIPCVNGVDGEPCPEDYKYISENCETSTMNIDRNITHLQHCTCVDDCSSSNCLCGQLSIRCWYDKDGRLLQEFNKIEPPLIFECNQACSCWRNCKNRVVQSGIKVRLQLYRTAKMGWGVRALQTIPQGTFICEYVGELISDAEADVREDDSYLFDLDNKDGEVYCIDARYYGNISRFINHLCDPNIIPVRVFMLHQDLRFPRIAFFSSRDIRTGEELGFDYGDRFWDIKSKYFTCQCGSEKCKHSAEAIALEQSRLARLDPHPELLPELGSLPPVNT
In words: HMT panel selectivity: G9a. The method, then: as §1

A further test concerns the target PRMT8 (Homo sapiens, UniProt Q9NR22). Description: HMT panel selectivity: PRMT8. The method, then: as §1
The target of a further test is T2, SetD8 (Homo sapiens, UniProt Q9NQR1).
T2 sequence (Q9NQR1 1-393): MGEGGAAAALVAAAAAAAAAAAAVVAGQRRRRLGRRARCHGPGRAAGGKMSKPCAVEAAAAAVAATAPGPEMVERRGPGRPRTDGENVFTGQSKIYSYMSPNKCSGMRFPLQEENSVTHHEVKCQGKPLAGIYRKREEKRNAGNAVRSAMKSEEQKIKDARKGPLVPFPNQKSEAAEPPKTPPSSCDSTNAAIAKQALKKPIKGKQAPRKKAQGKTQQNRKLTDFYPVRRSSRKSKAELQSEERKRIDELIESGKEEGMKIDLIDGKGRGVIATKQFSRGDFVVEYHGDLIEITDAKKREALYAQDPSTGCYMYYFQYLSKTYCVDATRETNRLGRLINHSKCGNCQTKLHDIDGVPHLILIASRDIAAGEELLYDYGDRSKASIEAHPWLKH
Description: HMT panel selectivity: SetD8. The method, then: as §1

For a further test, the target named is Suv39H2 (Homo sapiens, UniProt Q9H5I1). In words: HMT panel selectivity: Suv39H2. The method, then:
as §1

The target in the next test is T3, SMYD3 (Homo sapiens, UniProt Q9H7B4).
T3 sequence (Q9H7B4 1-428): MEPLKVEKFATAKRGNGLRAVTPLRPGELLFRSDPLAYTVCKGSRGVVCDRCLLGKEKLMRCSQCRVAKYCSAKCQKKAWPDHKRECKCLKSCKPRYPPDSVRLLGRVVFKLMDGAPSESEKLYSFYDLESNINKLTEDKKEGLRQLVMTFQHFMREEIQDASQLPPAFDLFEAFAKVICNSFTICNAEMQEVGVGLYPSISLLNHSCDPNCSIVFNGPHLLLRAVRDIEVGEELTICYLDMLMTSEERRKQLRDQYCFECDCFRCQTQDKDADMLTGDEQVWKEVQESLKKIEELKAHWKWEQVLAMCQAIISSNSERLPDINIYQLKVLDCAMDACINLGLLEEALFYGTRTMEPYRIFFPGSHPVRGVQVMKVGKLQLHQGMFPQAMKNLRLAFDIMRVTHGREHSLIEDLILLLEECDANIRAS
Description: HMT panel selectivity: SMYD3. The method, then:
as §1

Another test deals with PRMT5/MEP50 (Homo sapiens, UniProt O14744). Description: HMT panel selectivity: PRMT5/MEP50. The method, then:
as §1

Test [1] deals with EZH1 (EZH1/EED/SUZ12/RBAP48/AEBP2) (Homo sapiens, UniProt O75530+Q92800). Description: HMT panel selectivity: EZH1. An excerpt: Note: for EZH2, EZH2/EED/SUZ12/RBAP48/AEBP2 was used in the assay; for EZH1, EZH1/EED/SUZ12/RBAP48/AEBP2 was used in the assay; for MLL, MLL/WDR5/RBBP5/ASH2L/ was use in the assay. a, H3K27me0 peptide was used as substrate for both EZH2 and EZH1 activity; b, H3K27me1 peptide was used as substrate for both EZH2 and EZH1 activity.

Bounds are passed on as bounds.

Sequence of Suv39H2 (Q9H5I1 whole entry, species assumed): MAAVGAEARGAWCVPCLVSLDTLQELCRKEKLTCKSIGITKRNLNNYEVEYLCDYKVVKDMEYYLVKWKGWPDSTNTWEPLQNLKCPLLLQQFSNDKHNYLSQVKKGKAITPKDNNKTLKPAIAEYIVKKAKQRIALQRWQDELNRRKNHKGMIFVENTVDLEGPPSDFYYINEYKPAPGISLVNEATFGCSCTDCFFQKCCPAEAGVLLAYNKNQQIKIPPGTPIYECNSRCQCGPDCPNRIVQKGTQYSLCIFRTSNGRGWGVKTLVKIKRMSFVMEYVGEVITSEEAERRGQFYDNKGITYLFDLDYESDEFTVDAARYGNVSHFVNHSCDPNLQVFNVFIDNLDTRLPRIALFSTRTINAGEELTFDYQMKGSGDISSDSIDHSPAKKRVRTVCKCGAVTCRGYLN
Sequence of PRMT5/MEP50 (O14744 whole entry, species assumed): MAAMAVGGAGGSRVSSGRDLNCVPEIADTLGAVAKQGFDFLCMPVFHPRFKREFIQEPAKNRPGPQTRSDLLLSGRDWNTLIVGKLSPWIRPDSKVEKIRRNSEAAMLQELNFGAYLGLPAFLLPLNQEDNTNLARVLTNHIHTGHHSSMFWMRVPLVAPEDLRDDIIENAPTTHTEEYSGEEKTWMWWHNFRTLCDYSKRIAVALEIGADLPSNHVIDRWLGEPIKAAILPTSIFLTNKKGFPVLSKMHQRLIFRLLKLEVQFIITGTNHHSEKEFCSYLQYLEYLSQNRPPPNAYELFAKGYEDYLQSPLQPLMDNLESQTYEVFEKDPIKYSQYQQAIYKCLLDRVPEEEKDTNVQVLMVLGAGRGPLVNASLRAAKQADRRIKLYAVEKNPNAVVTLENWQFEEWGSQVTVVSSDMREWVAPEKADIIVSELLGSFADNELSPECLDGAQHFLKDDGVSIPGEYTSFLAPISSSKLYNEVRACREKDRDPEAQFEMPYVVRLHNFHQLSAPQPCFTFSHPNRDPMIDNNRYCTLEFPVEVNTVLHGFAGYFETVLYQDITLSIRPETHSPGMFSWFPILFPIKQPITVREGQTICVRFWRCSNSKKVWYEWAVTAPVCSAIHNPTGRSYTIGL
Sequence of PRMT5/MEP50 (Q9BQA1 whole entry partner, species assumed): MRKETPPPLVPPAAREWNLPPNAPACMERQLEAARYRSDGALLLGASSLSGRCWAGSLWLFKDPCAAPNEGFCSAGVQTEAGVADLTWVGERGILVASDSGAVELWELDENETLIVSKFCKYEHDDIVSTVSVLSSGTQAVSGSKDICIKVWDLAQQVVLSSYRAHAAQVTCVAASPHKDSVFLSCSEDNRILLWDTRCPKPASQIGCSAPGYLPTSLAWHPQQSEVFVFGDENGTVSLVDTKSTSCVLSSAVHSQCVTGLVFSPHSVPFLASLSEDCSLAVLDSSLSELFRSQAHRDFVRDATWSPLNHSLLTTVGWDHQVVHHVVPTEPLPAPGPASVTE
Sequence of SETD2 (Q9BYW2 whole entry, species assumed): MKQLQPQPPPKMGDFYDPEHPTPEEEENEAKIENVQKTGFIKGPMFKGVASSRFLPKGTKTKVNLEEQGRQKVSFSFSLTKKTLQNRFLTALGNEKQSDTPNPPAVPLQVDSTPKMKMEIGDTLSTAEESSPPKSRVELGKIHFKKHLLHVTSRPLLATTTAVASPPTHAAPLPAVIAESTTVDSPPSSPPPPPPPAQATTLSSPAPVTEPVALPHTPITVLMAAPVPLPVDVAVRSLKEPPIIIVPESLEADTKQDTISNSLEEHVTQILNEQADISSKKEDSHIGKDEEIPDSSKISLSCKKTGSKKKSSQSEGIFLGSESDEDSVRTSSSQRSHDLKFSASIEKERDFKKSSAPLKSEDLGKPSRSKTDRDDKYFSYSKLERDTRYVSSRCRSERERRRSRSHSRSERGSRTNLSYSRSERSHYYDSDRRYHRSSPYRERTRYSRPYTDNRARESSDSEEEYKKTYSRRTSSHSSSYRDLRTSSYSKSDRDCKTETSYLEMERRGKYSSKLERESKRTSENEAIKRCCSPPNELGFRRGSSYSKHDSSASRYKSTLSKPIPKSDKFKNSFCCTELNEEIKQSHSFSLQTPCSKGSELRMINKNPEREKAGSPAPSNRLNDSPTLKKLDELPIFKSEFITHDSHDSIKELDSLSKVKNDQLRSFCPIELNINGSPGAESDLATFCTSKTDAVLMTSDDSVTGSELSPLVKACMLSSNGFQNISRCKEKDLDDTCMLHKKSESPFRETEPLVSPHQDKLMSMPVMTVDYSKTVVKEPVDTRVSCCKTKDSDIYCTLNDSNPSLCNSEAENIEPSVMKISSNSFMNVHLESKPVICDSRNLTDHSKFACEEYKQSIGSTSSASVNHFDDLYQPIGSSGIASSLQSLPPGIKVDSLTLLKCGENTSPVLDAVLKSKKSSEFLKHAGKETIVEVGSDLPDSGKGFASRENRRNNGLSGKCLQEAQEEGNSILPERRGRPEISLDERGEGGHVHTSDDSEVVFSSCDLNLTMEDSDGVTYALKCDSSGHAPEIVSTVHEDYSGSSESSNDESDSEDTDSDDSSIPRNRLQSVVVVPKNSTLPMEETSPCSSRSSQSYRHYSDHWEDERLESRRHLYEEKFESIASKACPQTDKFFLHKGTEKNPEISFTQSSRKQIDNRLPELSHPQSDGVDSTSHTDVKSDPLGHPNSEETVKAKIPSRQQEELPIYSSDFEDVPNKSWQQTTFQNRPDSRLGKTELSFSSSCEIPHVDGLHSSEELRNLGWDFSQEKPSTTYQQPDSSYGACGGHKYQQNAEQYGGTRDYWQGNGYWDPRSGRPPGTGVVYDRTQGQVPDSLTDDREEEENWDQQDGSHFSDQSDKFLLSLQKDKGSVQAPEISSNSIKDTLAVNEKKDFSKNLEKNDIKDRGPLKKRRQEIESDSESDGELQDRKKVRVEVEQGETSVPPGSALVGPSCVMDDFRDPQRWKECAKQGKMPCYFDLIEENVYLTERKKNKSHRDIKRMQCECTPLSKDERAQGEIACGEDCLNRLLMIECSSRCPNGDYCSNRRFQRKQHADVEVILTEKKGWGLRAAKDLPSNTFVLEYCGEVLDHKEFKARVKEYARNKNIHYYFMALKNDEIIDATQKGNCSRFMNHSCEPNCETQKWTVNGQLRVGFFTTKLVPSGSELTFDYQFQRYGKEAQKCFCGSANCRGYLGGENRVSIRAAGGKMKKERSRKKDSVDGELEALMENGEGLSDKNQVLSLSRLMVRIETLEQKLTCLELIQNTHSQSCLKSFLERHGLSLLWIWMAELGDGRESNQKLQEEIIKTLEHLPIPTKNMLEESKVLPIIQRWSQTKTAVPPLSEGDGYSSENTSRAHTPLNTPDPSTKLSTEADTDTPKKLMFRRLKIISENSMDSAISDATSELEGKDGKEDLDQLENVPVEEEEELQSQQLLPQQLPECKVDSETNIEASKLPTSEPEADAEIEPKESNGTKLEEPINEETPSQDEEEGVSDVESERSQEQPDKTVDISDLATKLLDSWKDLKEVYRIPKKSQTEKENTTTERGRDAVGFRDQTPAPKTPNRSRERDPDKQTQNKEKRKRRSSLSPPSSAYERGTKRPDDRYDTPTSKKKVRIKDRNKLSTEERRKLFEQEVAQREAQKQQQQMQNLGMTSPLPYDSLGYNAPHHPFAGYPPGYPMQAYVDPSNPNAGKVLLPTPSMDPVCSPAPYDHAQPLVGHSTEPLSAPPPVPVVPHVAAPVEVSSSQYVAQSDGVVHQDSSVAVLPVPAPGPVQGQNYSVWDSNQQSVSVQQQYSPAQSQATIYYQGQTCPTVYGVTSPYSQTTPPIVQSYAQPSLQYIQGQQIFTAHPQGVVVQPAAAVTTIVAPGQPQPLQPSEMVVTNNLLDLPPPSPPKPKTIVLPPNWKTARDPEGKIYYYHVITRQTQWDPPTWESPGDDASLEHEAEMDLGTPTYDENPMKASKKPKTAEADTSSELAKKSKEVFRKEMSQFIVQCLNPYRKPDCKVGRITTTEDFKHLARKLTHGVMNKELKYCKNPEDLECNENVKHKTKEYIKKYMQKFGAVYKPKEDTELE
Sequence of PRMT8 (Q9NR22 whole entry, species assumed): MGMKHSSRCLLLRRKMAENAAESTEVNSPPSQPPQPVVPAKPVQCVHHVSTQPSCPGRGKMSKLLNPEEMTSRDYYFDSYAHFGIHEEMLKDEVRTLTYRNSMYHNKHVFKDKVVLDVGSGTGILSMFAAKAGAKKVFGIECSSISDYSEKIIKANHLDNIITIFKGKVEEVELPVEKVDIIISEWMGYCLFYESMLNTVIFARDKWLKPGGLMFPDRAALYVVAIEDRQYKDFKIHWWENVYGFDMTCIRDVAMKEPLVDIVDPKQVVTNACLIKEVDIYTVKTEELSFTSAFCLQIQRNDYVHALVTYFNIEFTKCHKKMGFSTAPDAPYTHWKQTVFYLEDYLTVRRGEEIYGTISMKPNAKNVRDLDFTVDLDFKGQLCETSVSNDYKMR

Turning to `COc1cccc(CC2CC3Cc4c(cccc4OC)CC3N(C)C2)c1` (stereo not shown) [EED210], the IC50 at SETD2, against ESET, against G9a, at PRMT8, at SetD8 and on Suv39H2 was over 100 µM in each case. The IC50 on SMYD3 and against PRMT5/MEP50 was over 100 µM in each case.

Turning to `COc1cc(-c2cc3n(c(=N)c2C#N)CCc2cc4c(cc2-3)OCO4)ccc1OC(C)C` [EED396], the IC50 against SETD2 is over 100 µM; against ESET it was over 100 µM; in test [1], 70 µM; on G9a it was over 100 µM; at PRMT8, over 100 µM; on SetD8 it was over 100 µM. Also, the IC50 at Suv39H2, on SMYD3 and against PRMT5/MEP50 was over 100 µM throughout.

For `Cc1cc(C)n(-c2cc(N3CCc4ccccc4C3)ccc2[N+](=O)[O-])n1` [EED666], the IC50 was over 100 µM at SETD2; over 100 µM against ESET; 66 µM in [1]; over 100 µM on G9a; over 100 µM on PRMT8; over 100 µM against SetD8. Moreover, the IC50 against Suv39H2, at SMYD3 and against PRMT5/MEP50 was over 100 µM each time.

In the case of `N#Cc1c2c(c3nncn3c1NCc1ccco1)CN(Cc1ccccc1)CC2` [EED162], the IC50 against SETD2 is over 100 µM; against ESET, over 100 µM; in test [1] it was 5.1 µM; at G9a, over 100 µM; at PRMT8, over 100 µM; against SetD8, over 100 µM. The IC50 against Suv39H2, on SMYD3 and on PRMT5/MEP50 was over 100 µM in each case.

Regarding `COc1ccccc1CN1CC(c2cn(C)c3ccccc23)C(N(C)C)C1` (stereo not shown) [EED709], the IC50 on SETD2, on ESET, at G9a, against PRMT8, on SetD8 and against Suv39H2 was over 100 µM throughout. Besides, the IC50 at SMYD3 and against PRMT5/MEP50 was over 100 µM each time.
